Laboratory results reported in publication PMC10779950, “Binding Free Energy Calculation Based on the Fragment Molecular Orbital Method and Its Application in Designing Novel SHP-2 Allosteric Inhibitors” (International Journal of Molecular Sciences, 2024).
Like-named read-outs stand apart in the source and are kept apart here.

What was measured:
[1] = tested on: Eg5; conditions: experimental binding free energy, ref Schrödinger FEP+ benchmark; cited from earlier work
[2] = target: T1, SHP2^WT (1–593) (Homo sapiens, UniProt Q06124); experiment: SHP-2 prompt fluorescence phosphatase assay (DiFMUP), SHP2^WT; assay type: biochemical; design: ΔG experiment: unit not given here; conditions: for ΔGexp: converted from IC50 with ΔGexp ≈ kBTlog IC50; for pIC50: from experimental IC50; for ΔG experiment: experimental binding free energy converted from IC50
T1 construct: made in house; host or cells: E. coli BL21 Star (DE3), pET30 vector
T1 sequence (Q06124 1-593): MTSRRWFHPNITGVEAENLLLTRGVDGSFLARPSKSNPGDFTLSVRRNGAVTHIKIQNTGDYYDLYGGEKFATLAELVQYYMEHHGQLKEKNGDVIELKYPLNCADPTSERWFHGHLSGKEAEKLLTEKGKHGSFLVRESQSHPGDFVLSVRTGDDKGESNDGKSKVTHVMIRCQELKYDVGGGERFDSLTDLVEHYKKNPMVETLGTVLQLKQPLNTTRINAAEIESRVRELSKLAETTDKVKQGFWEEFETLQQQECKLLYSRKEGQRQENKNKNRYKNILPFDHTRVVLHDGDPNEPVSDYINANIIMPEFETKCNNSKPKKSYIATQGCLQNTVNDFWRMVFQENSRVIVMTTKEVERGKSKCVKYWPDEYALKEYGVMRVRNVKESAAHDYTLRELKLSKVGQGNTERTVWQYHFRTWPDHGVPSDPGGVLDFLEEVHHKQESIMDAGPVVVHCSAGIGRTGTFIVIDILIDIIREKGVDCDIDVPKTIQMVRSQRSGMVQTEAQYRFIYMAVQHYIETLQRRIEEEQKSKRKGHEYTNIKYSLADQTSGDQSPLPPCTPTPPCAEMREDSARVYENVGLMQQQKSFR
Description: Briefly, the constructs were transformed into BL21 Star^TM (DE3) cells and cultured at 37 °C for 3~4 h. Subsequently, the cells with high expression of SHP2 protein were harvested after being induced by IPTG and grown overnight at 18 °C. Cell pellets were resuspended in lysis buffer (25 mM imidazole, 50 mM Tris−HCl, 500 mM NaCl, 2.5 mM MgCl2, 1 mM tris(2-carboxyethyl)phosphine (TCEP), 1 μg/mL DNase1, and complete EDTA-free protease inhibitor) and lysed using Low Temperature Ultrahigh Pressure Continuous Flow Cell Disrupter (JNBIO), followed by ultracentrifugation. The supernatant was collected. Then, the SHP2 was purified from the collected supernatant by using HisTrap HP chelation column, TEV protease, and HiTrap Q FastFlow column.
Then, the mixture was then incubated at 25 °C for 60 min. To initiate the reaction, the surrogate substrate DiFMUP (Invitrogen, cat. no. D6567, Shuzhou, China, 200 μM) was added and incubated at 25 °C for another 30 min. […] Fluorescence signal was detected using a microplate reader (Bio-Tek, Shanghai, China, Synergy2) at Ex/Em = 340/450 nm. Using control-based normalization, normalized IC50 regression curves were fitted to inhibitor dose response curves.

[3] = tested on: THR-β; experiment: Experimental THR-β activity of agonists taken from Hu et al.; assay type: biochemical; conditions: Table S4, converted from the experimental value
Description: In the initial phase of our investigation, we conducted a retrospective evaluation of FMOScore’s performance concerning thyroid hormone receptor β (THR-β) agonists, using a set of 18 compounds taken from the work of Hu et al. [65]

[4] = tested on: c-Met; design: method as in earlier work; conditions: Schrödinger FEP+ benchmark; cited from earlier work
[5] = tested on: c-Met; design: method as in earlier work; conditions: FEP+ predicted ΔG from the benchmark; cited from earlier work
[6] = tested on: SYK; conditions: experimental binding free energy, ref Schrödinger FEP+ benchmark; cited from earlier work
[7] = tested on: SYK; design: method as in Schrödinger FEP+ benchmark; conditions: FEP+ predicted binding free energy, ref Schrödinger FEP+ benchmark; cited from earlier work
[8] = SHP2^WT, DiFMUP substrate, averages of three independent experiments, read-out: SHP-2 IC50
[9] = SHP-2_case sheet, designed SHP-2 inhibitors, read-out: IC50uM
[10] = SHP-2_case sheet, same IC50 restated in another unit, read-out: IC50nM

CC(C)(C)c1ccc2c(c1)[C@H]1OCCC[C@H]1[C@H](c1ccc(O)cc1)N2 [CHEMBL1078691]
Exp. ΔG [1]: -10.19 kcal/mol

Nc1cc(NCC2CCCNC2)cnc1-c1cccc(Cl)c1Cl (stereo not drawn) [Compound 2, 2-(2,3-dichlorophenyl)-N5-(piperidin-3-ylmethyl) pyridine-3,5-diamine]
IC50 [2, 8]: 15.6 ± 1.49 µM
ΔGexp [2]: -6.553 kcal/mol
fold reduced inhibition on morphing the piperazine ring (relative to compound 1) ([2]; ratio of IC50): 10 fold
ΔGexp [3]: -6.110 kcal/mol
Exp. ΔG [4]: -11.25 kcal/mol
FEP [5]: -11.93 kcal/mol
Exp. ΔG [6]: -11.01 kcal/mol
FEP [7]: -10.49 kcal/mol

Clc1ccc2c(c1)[C@H]1OCCC[C@H]1[C@H](c1ccccc1)N2 [CHEMBL1089393]
Exp. ΔG [1]: -8.38 kcal/mol

Nc1cc(NC2CCNCC2)cnc1-c1cccc(Cl)c1Cl [A-S4]
IC50 [2, 9]: 23.5 µM
pIC50 ([2]; SHP-2_case sheet): 4.629
IC50 [2, 10]: 23.5 µM
ΔG experiment [2]: -6.312

CC1(N)CCN(c2cnc(-c3cccc(F)c3Cl)c(N)c2)CC1 [A-S5]
IC50 [2, 9]: 15.1 µM
pIC50 ([2]; SHP-2_case sheet): 4.821
IC50 [2, 10]: 15.1 µM
ΔG experiment [2]: -6.573

CNC[C@H]1CC[C@@H]2[C@H](O1)c1cc(C3CC3)ccc1N[C@H]2c1ccccc1 [CHEMBL1083836]
Exp. ΔG [1]: -10.86 kcal/mol

CN(C)CCS(=O)(=O)NC[C@H]1CC[C@@H]2[C@H](O1)c1cc(Cl)cc(F)c1N[C@H]2c1ccccc1 [CHEMBL1096003]
Exp. ΔG [1]: -11.87 kcal/mol

CC1(N)CCN(c2cnc(Sc3cccc(Cl)c3Cl)c(N)c2)CC1 [A-S7]
IC50 [2, 9]: 11.2 µM
pIC50 ([2]; SHP-2_case sheet): 4.949
IC50 [2, 10]: 11.2 µM
ΔG experiment [2]: -6.748

CNC[C@H]1CC[C@@H]2[C@H](O1)c1cc(Br)cc(F)c1N[C@H]2c1ccccc1 [CHEMBL1082248]
Exp. ΔG [1]: -11.63 kcal/mol

Nc1cc(NCC2CCCNC2)cnc1-c1cccc(Cl)c1Cl (stereo not drawn) [A-S2]
IC50 [2, 9]: 15.6 µM
pIC50 ([2]; SHP-2_case sheet): 4.8066
IC50 [2, 10]: 15.6 µM
ΔG experiment [2]: -6.554

CC(C)(C)c1ccc2c(c1)[C@H]1OCCC[C@H]1[C@H](c1ccsc1)N2 [CHEMBL1084115]
Exp. ΔG [1]: -9.44 kcal/mol

FC(F)(F)c1ccc2c(c1)[C@H]1O[C@@H](Cn3cncn3)CC[C@H]1[C@H](c1ccccc1)N2 [CHEMBL1093088]
Exp. ΔG [1]: -11.22 kcal/mol

CC(C)(C)c1ccc2c(c1)[C@H]1OCCC[C@H]1[C@H](c1cccs1)N2 [CHEMBL1078998]
Exp. ΔG [1]: -10.37 kcal/mol

Nc1cc(N2CCC3(CCCC3N)CC2)cnc1Sc1cccc(Cl)c1Cl (stereo not drawn) [Compound 8, 8-(5-amino-6-((2,3-dichlorophenyl)thio)pyridin-3-yl)-8-azaspiro[4.5]decan-1-amine]
inhibitory activity against SHP-2 (in words) ([2]; Figure S4, DIFMUP substrate, mean ± SD (n = 3)): potent inhibitory activity
IC50 [2, 8]: 2.29 ± 0.66 µM
ΔGexp [2]: -7.690 kcal/mol
ΔGexp [3]: -8.072 kcal/mol
Exp. ΔG [4]: -10.06 kcal/mol
FEP [5]: -9.12 kcal/mol
Exp. ΔG [6]: -9.78 kcal/mol
FEP [7]: -10.6 kcal/mol

CC(=O)NCCNC[C@H]1CC[C@@H]2[C@H](O1)c1cc(Br)cc(F)c1N[C@H]2c1ccccc1 [CHEMBL1082249]
Exp. ΔG [1]: -11.22 kcal/mol

CC(C)(C)c1ccc2c(c1)[C@H]1OCCC[C@H]1[C@H](c1ccccc1)N2 [CHEMBL1089056]
Exp. ΔG [1]: -9.44 kcal/mol

OCCNC[C@H]1CC[C@@H]2[C@H](O1)c1cc(Cl)cc(F)c1N[C@H]2c1ccccc1 [CHEMBL1096002]
Exp. ΔG [1]: -11.13 kcal/mol

CC1(N)CCN(c2cnc(-c3cccc(Cl)c3Cl)c(N)c2)CC1 [A-S1]
IC50 [2, 9]: 1.49 µM
pIC50 ([2]; SHP-2_case sheet): 5.826
IC50 [2, 10]: 1.49 µM
ΔG experiment [2]: -7.943

CN(C)CCCC(=O)NC[C@H]1CC[C@@H]2[C@H](O1)c1cc(Br)cc(F)c1N[C@H]2c1ccccc1 [CHEMBL1085692]
Exp. ΔG [1]: -11.32 kcal/mol
